Source: ChEMBL document CHEMBL6109101, “Synthesis and bioactivity of cyclic peptide GG-8-6 analogues as anti-hepatocellular carcinoma agents” (Eur J Med Chem, 2025)
Activity calls are given as the source filed them. The calls are words filed in the database; no cut-off is given here.

Columns and labels:
Type in all cases: functional, cell-based
HCCLM3 [1] = experiment: Cytotoxicity against human HCCLM3 cells assessed as inhibition of cell proliferation incubated for 48 hrs by MTT assay; details: HCCLM3, 48 h
Huh-7 = experiment: Cytotoxicity against human Huh-7 cells assessed as inhibition of cell proliferation incubated for 48 hrs by MTT assay; details: Huh-7, 48 h
HepG2 = experiment: Cytotoxicity against human HepG2 cells assessed as inhibition of cell proliferation incubated for 48 hrs by MTT assay; details: HepG2, 48 h
MHCC97H [2] = experiment: Cytotoxicity against human MHCC97H cells assessed as inhibition of cell proliferation incubated for 48 hrs by MTT assay
HCCLM3 [3] = experiment: Cytotoxicity against human HCCLM3 cells assessed as cell viability incubated at 12 to 48 hrs hrs by MTT assay; details: dose <= 40.0 µM, time 12-48 hrs
HCCLM3 [4] = experiment: Cytotoxicity against human HCCLM3 cells assessed as reduction in cell viability up to 40 uM measured at 48 hrs by MTT assay
MHCC97H [5] = experiment: Cytotoxicity against human MHCC97H cells assessed as cell viability up to 40 uM measured at 24 to 48 hrs by MTT assay; details: time 24-48 hrs
MHCC97H [6] = experiment: Cytotoxicity against human MHCC97H cells assessed as cell viability up to 40 uM measured at 12 hrs by MTT assay
HCCLM3 [7] = experiment: Cytotoxicity against human HCCLM3 cells assessed as reduction in cell viability at 40 uM measured at 48 hrs by MTT assay
MHCC97H [8] = experiment: Cytotoxicity against human MHCC97H cells assessed as reduction in cell viability up to 40 uM measured at 48 hrs by MTT assay
MHCC97H [9] = experiment: Cytotoxicity against human MHCC97H cells assessed as reduction in cell viability at 40 uM measured at 48 hrs by MTT assay
MHCC97H [10] = experiment: Cytotoxicity against human MHCC97H cells assessed as reduction in cell viability at 40 uM measured after 48 hrs by MTT assay
HCCLM3 [11] = experiment: Cytotoxicity against human HCCLM3 cells assessed as reduction in cell viability at 40 uM measured after 48 hrs by MTT assay
MHCC97H [12] = experiment: Cytotoxicity against human MHCC97H cells assessed as cell viability incubated at 12 to 48 hrs hrs by MTT assay; details: dose <= 40.0 µM, time 12-48 hrs
HCCLM3 [13] = experiment: Cytotoxicity against human HCCLM3 cells assessed as cell viability up to 40 uM by MTT assay; details: time 12-48 hrs
HCCLM3 [14] = experiment: Cytotoxicity against human HCCLM3 cells assessed as cell viability up to 40 uM measured at 12 hrs by MTT assay
HCCLM3 [15] = experiment: Cytotoxicity against human HCCLM3 cells assessed as cell viability up to 40 uM measured at 24 to 48 hrs by MTT assay; details: time 24-48 hrs
MHCC97H [16] = experiment: Cytotoxicity against human MHCC97H cells assessed as cell viability up to 40 uM by MTT assay; details: time 12-48 hrs

Structure (SMILES) | IC50 (HCCLM3 [1]) [µM] | IC50 (Huh-7) [µM] | IC50 (HepG2) [µM] | IC50 (MHCC97H [2]) [µM] | Activity (HCCLM3 [3]) | Activity (HCCLM3 [4]) | Activity (MHCC97H [5]) | Activity (MHCC97H [6]) | Activity (HCCLM3 [7]) | Activity (MHCC97H [8]) | Activity (MHCC97H [9]) | Activity (MHCC97H [10]) | Activity (HCCLM3 [11]) | Activity (MHCC97H [12]) | Activity (HCCLM3 [13]) | Activity (HCCLM3 [14]) | Activity (HCCLM3 [15]) | Activity (MHCC97H [16])
CC(C)C[C@@H]1NC(=O)[C@H](CC(C)C)NC(=O)[C@@H](CCCCNC(=O)OC(C)(C)C)NC(=O)[C@@H]2CCCN2C(=O)[C@@H](CC(C)C)NC(=O)[C@H](COC(C)(C)C)NC(=O)[C@H](CC(C)C)NC(=O)[C@H](C(C)C)NC(=O)[C@H](CC(C)C)NC1=O | 10.2 | > 100 | > 100 | 10.2 | – | – | – | – | – | – | – | – | – | – | – | – | – | –
CC[C@@H](C)[C@H]1NC(=O)[C@@H]2CCCN2C(=O)[C@@H](CC(C)C)NC(=O)[C@@H](Cc2ccccc2)NC(=O)[C@H](CC(C)C)NC(=O)[C@H](C(C)C)NC(=O)[C@H](CC(C)C)NC(=O)[C@H](CC(C)C)NC(=O)[C@H](CC(C)C)NC1=O | > 100 | > 100 | > 100 | > 100 | – | – | – | – | – | – | – | – | – | – | – | – | – | –
CC[C@@H](C)[C@H]1NC(=O)[C@@H]2CCCN2C(=O)[C@@H](CC(C)C)NC(=O)[C@@H]([C@@H](C)OC(C)(C)C)NC(=O)[C@H](CC(C)C)NC(=O)[C@H](C(C)C)NC(=O)[C@H](CC(C)C)NC(=O)[C@H](CC(C)C)NC(=O)[C@H](CC(C)C)NC1=O | > 100 | > 100 | > 100 | > 100 | – | – | – | – | – | – | – | – | – | – | – | – | – | –
CC[C@@H](C)[C@H]1NC(=O)[C@@H]2CCCN2C(=O)[C@@H](CC(C)C)NC(=O)[C@H](CCCCNC(=O)OC(C)(C)C)NC(=O)[C@@H](CC(C)C)NC(=O)[C@H](C(C)C)NC(=O)[C@H](CC(C)C)NC(=O)[C@H](CC(C)C)NC(=O)[C@H](CC(C)C)NC1=O | > 100 | > 100 | > 100 | > 100 | – | – | – | – | – | – | – | – | – | – | – | – | – | –
CC(C)C[C@@H]1NC(=O)[C@H](CC(C)C)NC(=O)[C@@H](CCCCNC(=O)OC(C)(C)C)NC(=O)[C@@H]2CCCN2C(=O)[C@@H](CC(C)C)NC(=O)[C@H](C(C)C)NC(=O)[C@H](CC(C)C)NC(=O)[C@H](C(C)C)NC(=O)[C@H](CC(C)C)NC1=O | 2.17 | > 100 | > 100 | 2.7 | – | – | – | – | – | – | – | – | – | – | – | – | – | –
CC[C@@H](C)[C@H]1NC(=O)[C@@H]2CCCN2C(=O)[C@@H](CC(C)C)NC(=O)[C@H](Cc2ccc(OC(C)(C)C)cc2)NC(=O)[C@@H](CC(C)C)NC(=O)[C@H](C(C)C)NC(=O)[C@H](CC(C)C)NC(=O)[C@H](CC(C)C)NC(=O)[C@H](CC(C)C)NC1=O | 2.86 | 2.08 | 2.08 | 4.86 | – | – | – | – | – | – | – | – | – | – | – | – | – | –
CC(C)C[C@@H]1NC(=O)[C@H](CC(C)C)NC(=O)[C@@H](CCCCNC(=O)OC(C)(C)C)NC(=O)[C@@H]2CCCN2C(=O)[C@@H](CC(C)C)NC(=O)[C@H](Cc2ccc(OC(C)(C)C)cc2)NC(=O)[C@H](CC(C)C)NC(=O)[C@H](C(C)C)NC(=O)[C@H](CC(C)C)NC1=O | 3.26 | > 100 | > 100 | 3.51 | Dose-dependent-effect | Active | Active | Active | Active | Active | Active | Active | Active | Dose-dependent-effect | Time-dependent-effect | Active | Active | Time-dependent-effect
CC[C@@H](C)[C@H]1NC(=O)[C@@H]2CCCN2C(=O)[C@@H](CC(C)C)NC(=O)[C@@H]([C@@H](C)OC(C)(C)C)NC(=O)[C@@H](CCCCNC(=O)OC(C)(C)C)NC(=O)[C@H](C(C)C)NC(=O)[C@H](CC(C)C)NC(=O)[C@H](CC(C)C)NC(=O)[C@H](CC(C)C)NC1=O | 6.57 | > 100 | > 100 | 9.19 | Dose-dependent-effect | Active | Active | Active | Active | Active | Active | Active | Active | Dose-dependent-effect | Time-dependent-effect | Active | Active | Time-dependent-effect
